Reference: ChEMBL document CHEMBL6153029, “Next-generation cancer therapeutics: PROTACs and the role of heterocyclic warheads in targeting resistance” (Eur J Med Chem, 2025)

What was measured:
[1] = target: Protein cereblon/Tyrosine-protein kinase BTK (Homo sapiens, UniProt Q06187+Q96SW2); assay: PROTAC activity at BTK/CRBN in human MINO cells assessed as BTK protein degradation at 20 nM measured after 2 hrs by Western blotting analysis; type: cell-based
[2] = target: von Hippel-Lindau disease tumor suppressor/Platelet-derived growth factor receptor beta (Homo sapiens, UniProt P09619+P40337); assay: PROTAC activity at VHL/PDGFRbeta in human U87 cells assessed as induction of protein degradation by Western blot analysis; type: cell-based
von Hippel-Lindau disease tumor suppressor/Platelet-derived growth factor receptor beta, sequence (P09619 whole entry): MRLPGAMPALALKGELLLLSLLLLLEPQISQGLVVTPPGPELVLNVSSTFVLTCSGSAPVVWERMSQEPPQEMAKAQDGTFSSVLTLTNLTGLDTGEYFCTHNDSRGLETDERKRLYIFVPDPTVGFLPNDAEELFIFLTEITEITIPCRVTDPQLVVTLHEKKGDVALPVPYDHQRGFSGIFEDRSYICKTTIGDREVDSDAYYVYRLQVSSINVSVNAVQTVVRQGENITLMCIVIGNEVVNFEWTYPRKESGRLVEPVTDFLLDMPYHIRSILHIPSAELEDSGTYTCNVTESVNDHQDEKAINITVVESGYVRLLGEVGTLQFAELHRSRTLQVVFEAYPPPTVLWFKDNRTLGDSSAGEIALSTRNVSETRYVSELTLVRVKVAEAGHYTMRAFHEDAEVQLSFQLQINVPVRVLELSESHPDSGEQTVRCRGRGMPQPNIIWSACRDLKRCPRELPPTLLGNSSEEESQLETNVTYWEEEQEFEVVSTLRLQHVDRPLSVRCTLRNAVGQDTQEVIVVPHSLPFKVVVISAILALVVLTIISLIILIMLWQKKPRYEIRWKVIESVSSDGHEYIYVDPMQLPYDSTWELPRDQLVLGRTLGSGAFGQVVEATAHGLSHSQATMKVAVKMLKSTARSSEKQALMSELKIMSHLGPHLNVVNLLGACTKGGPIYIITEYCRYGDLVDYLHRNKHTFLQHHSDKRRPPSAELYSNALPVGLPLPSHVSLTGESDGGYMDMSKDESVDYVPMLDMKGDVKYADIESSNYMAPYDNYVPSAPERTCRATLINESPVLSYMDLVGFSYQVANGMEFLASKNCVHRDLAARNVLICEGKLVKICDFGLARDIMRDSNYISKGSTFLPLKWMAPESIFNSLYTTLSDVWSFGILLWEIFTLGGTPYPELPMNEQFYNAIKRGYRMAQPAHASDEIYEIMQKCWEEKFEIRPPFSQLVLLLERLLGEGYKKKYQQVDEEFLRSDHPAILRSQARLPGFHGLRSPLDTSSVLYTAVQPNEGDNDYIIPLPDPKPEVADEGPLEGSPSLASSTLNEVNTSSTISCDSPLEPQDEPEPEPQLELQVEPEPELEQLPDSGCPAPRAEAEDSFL
von Hippel-Lindau disease tumor suppressor/Platelet-derived growth factor receptor beta, sequence (P40337 whole entry): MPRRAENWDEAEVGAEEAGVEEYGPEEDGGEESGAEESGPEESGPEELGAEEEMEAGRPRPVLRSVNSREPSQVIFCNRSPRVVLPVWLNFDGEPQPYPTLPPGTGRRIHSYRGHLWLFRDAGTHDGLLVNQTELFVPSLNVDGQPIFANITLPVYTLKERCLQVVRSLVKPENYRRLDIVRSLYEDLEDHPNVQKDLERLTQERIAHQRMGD

U-87 MG = assay: Antiproliferative activity against human U87 cells; type: functional, cell-based, U-87MG ATCC
[3] = Downregulation of MDM2 protein expression in human A549 cells at 1.11 uM relative to control; type: functional
[4] = Downregulation of MDM2 protein expression in human A549 cells at 3.33 uM relative to control; type: functional
[5] = Upregulation of p53 protein expression in human A549 cells at 10 uM relative to control; type: functional
[6] = Upregulation of p53 protein expression in human A549 cells at 3.33 uM relative to control; type: functional
[7] = Upregulation of p53 protein expression in human A549 cells at 1.11 uM relative to control; type: functional
A549 [8] = assay: Antiproliferative activity against human A549 cells; type: functional, cell-based
[9] = Downregulation of MDM2 protein expression in human A549 cells at 10 uM relative to control; type: functional
[10] = target: T1, Glucose-induced degradation protein 4 homolog/EML4-ALK (Homo sapiens, UniProt Q9UM73+Q9HC35+Q8IVV7); assay: PROTAC activity at GID4/EML4-ALK in human NCI-H3122 cells assessed as maximal protein degradation at 1 uM measured for 48 hrs by immunoblot analysis relative to control; type: cell-based
[11] = target: T1, Glucose-induced degradation protein 4 homolog/EML4-ALK; assay: PROTAC activity at GID4/EML4-ALK in human NCI-H3122 cells assessed as protein degradation at 1 uM measured for 48 hrs by immunoblot analysis; type: cell-based
[12] = target: T2, Protein cereblon/ALK tyrosine kinase receptor/Nucleophosmin (Homo sapiens, UniProt Q9UM73+P06748+Q96SW2); assay: PROTAC activity at CRBN/NPM/ALK in human KARPAS-299 cells assessed as maximal degradation of protein at 1 uM incubated for 48 hrs by Western blotting analysis relative to control; type: cell-based
[13] = target: T2, Protein cereblon/ALK tyrosine kinase receptor/Nucleophosmin; assay: PROTAC activity at CRBN/NPM/ALK in human KARPAS-299 cells incubated for 48 hrs by Western blotting analysis; type: cell-based
MCF7 [14] = assay: Antiproliferative activity against human MCF7 cells assessed as reduction in cell viability incubated for 48 hrs by MTT assay; type: functional, cell-based; details: MCF7, 48 h
MCF7 [15] = assay: Antiproliferative activity against human MCF7 cells assessed as reduction in cell viability at 25 uM incubated for 72 hrs by resazurin based assay relative to control; type: functional
LNCaP [16] = assay: Antiproliferative activity against human LNCAP cells assessed as reduction in cell viability incubated for 24 hrs by MTT assay; type: functional, cell-based
[17] = target: Protein cereblon/Androgen receptor (Homo sapiens) (UniProt P10275+Q96SW2); assay: PROTAC activity at AR/CRBN in human LNCaP cells assessed as protein degradation measured by measuring maximal degradation at 5 uM incubated for 24 hrs by Western blot analysis relative to control; type: cell-based
Protein cereblon/Androgen receptor (Homo sapiens), sequence (P10275 whole entry, looked up): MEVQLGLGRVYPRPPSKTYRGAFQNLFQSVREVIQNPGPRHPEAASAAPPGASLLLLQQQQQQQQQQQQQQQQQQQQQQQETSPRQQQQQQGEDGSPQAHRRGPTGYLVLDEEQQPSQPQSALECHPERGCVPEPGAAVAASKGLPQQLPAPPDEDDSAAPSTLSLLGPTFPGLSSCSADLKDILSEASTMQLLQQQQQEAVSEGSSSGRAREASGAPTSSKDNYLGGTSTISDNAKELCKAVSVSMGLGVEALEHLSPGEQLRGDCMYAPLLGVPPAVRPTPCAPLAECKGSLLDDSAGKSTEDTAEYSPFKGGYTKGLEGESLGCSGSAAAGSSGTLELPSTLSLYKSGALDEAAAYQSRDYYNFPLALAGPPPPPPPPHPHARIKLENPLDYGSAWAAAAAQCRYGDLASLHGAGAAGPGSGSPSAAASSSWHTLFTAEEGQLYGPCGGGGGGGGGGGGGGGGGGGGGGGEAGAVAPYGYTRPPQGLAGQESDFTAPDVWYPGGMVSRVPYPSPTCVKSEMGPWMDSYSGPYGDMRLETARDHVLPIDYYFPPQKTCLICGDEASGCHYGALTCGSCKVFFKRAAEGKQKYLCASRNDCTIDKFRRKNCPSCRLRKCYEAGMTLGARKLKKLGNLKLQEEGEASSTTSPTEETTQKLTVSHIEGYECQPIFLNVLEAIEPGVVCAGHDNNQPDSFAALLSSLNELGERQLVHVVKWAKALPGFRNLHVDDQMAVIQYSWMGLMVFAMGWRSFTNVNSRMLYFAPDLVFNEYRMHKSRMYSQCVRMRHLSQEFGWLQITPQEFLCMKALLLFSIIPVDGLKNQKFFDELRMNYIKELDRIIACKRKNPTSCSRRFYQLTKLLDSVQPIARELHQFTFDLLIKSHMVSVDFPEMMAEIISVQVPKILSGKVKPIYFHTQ
Protein cereblon/Androgen receptor (Homo sapiens), sequence (Q96SW2 whole entry, looked up): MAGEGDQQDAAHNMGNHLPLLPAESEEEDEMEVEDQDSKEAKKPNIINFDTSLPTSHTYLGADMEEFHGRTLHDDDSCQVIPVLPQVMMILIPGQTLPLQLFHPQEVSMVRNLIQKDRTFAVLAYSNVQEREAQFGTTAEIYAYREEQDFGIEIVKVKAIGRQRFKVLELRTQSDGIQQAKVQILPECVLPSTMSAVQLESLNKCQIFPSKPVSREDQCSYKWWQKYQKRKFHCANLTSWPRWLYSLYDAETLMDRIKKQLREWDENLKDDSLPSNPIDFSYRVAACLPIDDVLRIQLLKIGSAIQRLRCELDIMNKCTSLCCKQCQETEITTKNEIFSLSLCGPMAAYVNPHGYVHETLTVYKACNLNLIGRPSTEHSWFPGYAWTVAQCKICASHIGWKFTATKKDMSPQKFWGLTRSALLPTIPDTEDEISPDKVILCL

NCI-H1975 = assay: Antiproliferative activity against human NCI-H1975 cells assessed as reduction in cell viability by MTT assay; type: functional, cell-based
A549 [18] = assay: Antiproliferative activity against human A549 cells assessed as reduction in cell viability by MTT assay; type: functional, cell-based
Hs-578T = assay: Antiproliferative activity against human Hs-578T cells; type: functional, cell-based
LNCaP [19] = assay: Antiproliferative activity against human LNCaP cells; type: functional, cell-based
[20] = target: Bromodomain-containing protein 4 (Homo sapiens, UniProt O60885); assay: Binding affinity to BRD4 (unknown origin) assessed as dissociation constant
LNCaP C4-2B = assay: Antiproliferative activity against human LNCaP C4-2B cells; type: functional, cell-based
MOLM-13 = assay: Antiproliferative activity against human MOLM-13 cells; type: functional, cell-based
MV4-11 = assay: Antiproliferative activity against human MV4-11 cells; type: functional, cell-based
CWR22R = assay: Antiproliferative activity against human 22Rv1 cells; type: functional, cell-based
[21] = target: Platelet-derived growth factor receptor beta (Homo sapiens) (UniProt P09619); assay: Inhibition of PDGFRbeta (unknown origin) measured for 48 hrs at 10 uM relative to control
Platelet-derived growth factor receptor beta (Homo sapiens), sequence (P09619 whole entry): as the sequence (P09619 whole entry) above

Protein cereblon/Tyrosine-protein kinase BTK, sequence (Q06187 whole entry): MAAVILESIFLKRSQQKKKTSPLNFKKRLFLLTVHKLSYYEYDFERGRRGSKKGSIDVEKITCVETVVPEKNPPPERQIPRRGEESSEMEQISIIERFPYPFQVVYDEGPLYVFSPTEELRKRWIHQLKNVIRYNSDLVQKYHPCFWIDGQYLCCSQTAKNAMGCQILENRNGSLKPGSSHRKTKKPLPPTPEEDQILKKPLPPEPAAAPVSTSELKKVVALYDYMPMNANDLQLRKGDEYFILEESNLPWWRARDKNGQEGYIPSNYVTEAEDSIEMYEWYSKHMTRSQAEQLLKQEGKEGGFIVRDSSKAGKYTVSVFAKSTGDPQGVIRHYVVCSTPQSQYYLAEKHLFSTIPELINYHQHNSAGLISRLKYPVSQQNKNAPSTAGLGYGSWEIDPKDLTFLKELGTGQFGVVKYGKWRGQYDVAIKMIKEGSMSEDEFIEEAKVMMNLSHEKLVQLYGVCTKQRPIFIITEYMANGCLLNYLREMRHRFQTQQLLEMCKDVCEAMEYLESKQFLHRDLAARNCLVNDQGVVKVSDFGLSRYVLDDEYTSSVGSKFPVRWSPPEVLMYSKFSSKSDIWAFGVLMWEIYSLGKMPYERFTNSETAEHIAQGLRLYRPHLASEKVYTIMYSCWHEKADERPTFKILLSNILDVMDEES
Protein cereblon/Tyrosine-protein kinase BTK, sequence (Q96SW2 whole entry): as the sequence (Q96SW2 whole entry, looked up) above

Question: For Nc1ncnc2c1c(-c1ccc(Oc3ccccc3)cc1)nn2[C@@H]1CCCN(C(=O)CCCCCNc2ccc3c(c2)C(=O)N(C2CCC(=O)NC2=O)C3)C1 (some centres undefined), which DC50 [1] is on record?
Answer: 3.8 nM

Question: Which DC50 [2] does the source give for Cc1cccc(NC(=O)Nc2ccc(-c3cccc4c3c(N)nn4C(=O)CCCNC(=O)C3CC4CC3c3c4cnnc3-c3ccc(NC(=O)CCC(=O)N[C@H](C(=O)N4C[C@H](O)C[C@H]4C(=O)NCc4ccc(-c5scnc5C)cc4)C(C)(C)C)cc3)cc2)c1F (some centres undefined) here?
Answer: 257 nM

Question: And the IC50 (U-87 MG)?
Answer: > 100000 nM

Question: Which Activity [3] does the source give for COC(C)(C)CCC[C@@](C)(O)[C@H]1CC[C@]2(C)[C@@H]1[C@H](O)C[C@@H]1[C@@]3(C)CC[C@H](OCC(=O)N4CCN(CC5CCN(c6ccc7c(c6)CN(C6CCC(=O)NC6=O)C7=O)CC5)CC4)C(C)(C)[C@@H]3CC[C@]12C (some centres undefined) here?
Answer: 33.78%

Question: And the Activity [4]?
Answer: 49.53%

Question: And the Activity [5]?
Answer: 147.15%

Question: What about the Activity [6] of the same compound?
Answer: 138.01%

Question: What about the Activity [7] of the same compound?
Answer: 133.45%

Question: What about the IC50 (A549 [8]) of the same compound?
Answer: 2160 nM

Question: And the Activity [9]?
Answer: 65.39%

Question: Which Emax [10] does the source give for COc1cc(N2CCN(C(=O)CNc3cccc4c3C(=O)N(C3CCC(=O)NC3=O)C4=O)CC2)ccc1Nc1ncc(Cl)c(Nc2ccccc2S(=O)(=O)C(C)C)n1 (centres undefined) here?
Answer: 81.3%

Question: What about the DC50 [11] of the same compound?
Answer: 358 nM

Question: What about the Emax [12] of the same compound?
Answer: 92.3%

Question: And the DC50 [13]?
Answer: 4.6 nM

Question: For Cc1ncsc1-c1ccc(CNC(=O)[C@@H]2C[C@@H](O)CN2C(=O)[C@@H](NC(=O)CCC(=O)Nc2ccc(-c3nncc4c3C3CC4CC3C(=O)NCCCC(=O)n3nc(N)c4c(-c5ccc(NC(=O)Nc6cccc(Cl)c6)cc5)cccc43)cc2)C(C)(C)C)cc1 (some centres undefined), which IC50 (U-87 MG) is on record?
Answer: 910 nM

Question: Which IC50 (MCF7 [14]) does the source give for Nc1nc2cc(-c3nn(Cc4cn(CCCCCC(=O)Nc5cccc6c5C(=O)N(C5CCC(=O)NC5=O)C6=O)nn4)c4ncnc(N)c34)ccc2o1 (centres undefined) here?
Answer: 87 nM

Question: And the Activity (MCF7 [15])?
Answer: 90%

Question: Which results are given for CC1(C)C(=O)N(c2ccc(C#N)c(C(F)(F)F)c2)C(=S)N1CCCCCCCCC(=O)N1CCN(CCCCCCCCCCCCC(=O)NC23CC4CC(CC(C4)C2)C3)CC1?
Answer: IC50 (LNCaP [16]): 4770 nM; Emax [17]: 57%

Question: For COc1cc2ncnc(Nc3ccc(Cl)c(Cl)c3F)c2cc1Oc1ccc(NC(=O)CCCCCCC(=O)Nc2cccc3c2CN(C2CCC(=O)NC2=O)C3=O)cc1 (centres undefined), which IC50 (NCI-H1975) is on record?
Answer: 2100 nM

Question: What about the IC50 (A549 [18]) of the same compound?
Answer: 67000 nM

Question: For COc1ccc(Br)cc1S(=O)(=O)Nc1cc2c(C)noc2cc1OCCOCCOCCOCCOCCOCCOc1cc2onc(C)c2cc1NS(=O)(=O)c1cc(Br)ccc1OC, which IC50 (Hs-578T) is on record?
Answer: 1360 nM

Question: What about the IC50 (LNCaP [19]) of the same compound?
Answer: 525 nM

Question: What about the Kd [20] of the same compound?
Answer: 741 nM

Question: And the IC50 (LNCaP C4-2B)?
Answer: 930 nM

Question: What about the IC50 (MOLM-13) of the same compound?
Answer: 450 nM

Question: And the IC50 (MV4-11)?
Answer: 450 nM

Question: And the IC50 (CWR22R)?
Answer: 900 nM

Question: For Cc1ncsc1-c1ccc(CNC(=O)[C@@H]2C[C@@H](O)CN2C(=O)[C@@H](NCCCCNC(=O)CNC(=O)c2cc(Oc3ccc(NC(=O)Nc4ccc(Cl)c(C(F)(F)F)c4)cc3)ccn2)C(C)(C)C)cc1, which inhibition [21] is on record?
Answer: > 70%
